# Assay results from PMC6586010 (Journal of Clinical Pharmacology, 2018).
# Where two headings read alike, the source gives them in different places.
# Tests used:
# CYP3A5 = conditions: human liver microsomes of CYP3A5*1/*1 (EM) donors; cited from earlier work
# [1] = assay type: in vivo, human; conditions: part 1
# HIV‐1 [2] = assay: Study 1; assay type: in vivo; conditions: for subjects who discontinued the study because of lack of efficacy: through week 96, maraviroc
# HIV‐1 [3] = conditions: study 1; cited from earlier work
# HIV = conditions: viral inhibition; cited from earlier work
# HIV‐1 [4] = conditions: 48 weeks, cited from earlier work
# [5] = week 48, efavirenz 600 mg once daily + zidovudine/lamivudine, EMs (2 CYP3A5*1 alleles)
# [6] = week 48, efavirenz 600 mg once daily + zidovudine/lamivudine, IMs (1 CYP3A5*1 allele)
# [7] = week 48, efavirenz 600 mg once daily + zidovudine/lamivudine, PMs (no CYP3A5*1 alleles)
# [8] = week 48, efavirenz 600 mg once daily + zidovudine/lamivudine, overall
# [9] = week 96, efavirenz 600 mg once daily + zidovudine/lamivudine, EMs (2 CYP3A5*1 alleles)
# [10] = week 96, efavirenz 600 mg once daily + zidovudine/lamivudine, IMs (1 CYP3A5*1 allele)
# [11] = week 96, efavirenz 600 mg once daily + zidovudine/lamivudine, PMs (no CYP3A5*1 alleles)
# [12] = week 96, efavirenz 600 mg once daily + zidovudine/lamivudine, overall
# [13] = week 48, maraviroc 300 mg twice daily + zidovudine/lamivudine, EMs (2 CYP3A5*1 alleles)
# [14] = week 48, maraviroc 300 mg twice daily + zidovudine/lamivudine, IMs (1 CYP3A5*1 allele)
# [15] = week 48, maraviroc 300 mg twice daily + zidovudine/lamivudine, PMs (no CYP3A5*1 alleles)
# [16] = week 48, maraviroc 300 mg twice daily + zidovudine/lamivudine, overall
# [17] = week 96, maraviroc 300 mg twice daily + zidovudine/lamivudine, EMs (2 CYP3A5*1 alleles)
# [18] = week 96, maraviroc 300 mg twice daily + zidovudine/lamivudine, IMs (1 CYP3A5*1 allele)
# [19] = week 96, maraviroc 300 mg twice daily + zidovudine/lamivudine, PMs (no CYP3A5*1 alleles)
# [20] = week 96, maraviroc 300 mg twice daily + zidovudine/lamivudine, overall
compound,measurement,setting,value
"Cc1nnc(C(C)C)n1C1C[C@H]2CC[C@@H](C1)N2CC[C@H](NC(=O)[C@H]1CCC(F)(F)[C@H](O)C1)c1ccccc1 (stereo partly drawn) [(1S,3R)-3-hydroxymaraviroc, (1S,3R)‐3‐hydroxymaraviroc]",CYP3A5 contribution to the formation of this metabolite,CYP3A5,minimal
same,mean MRAUC12 across all cohorts,[1],comparable
O=C1Nc2ccc(Cl)cc2[C@@](C#CC2CC2)(C(F)(F)F)O1 [Efavirenz],Proportion of subjects with HIV-1 RNA <50 copies/mL,HIV‐1 [2]; [5],19/30 (63.3) %
same,Proportion of subjects with HIV-1 RNA <400 copies/mL,HIV‐1 [2]; [5],20/30 (66.7) %
same,Proportion of subjects with HIV-1 RNA <50 copies/mL,HIV‐1 [2]; [6],68/96 (70.8) %
same,Proportion of subjects with HIV-1 RNA <400 copies/mL,HIV‐1 [2]; [6],71/96 (74.0) %
same,Proportion of subjects with HIV-1 RNA <50 copies/mL,HIV‐1 [2]; [7],113/164 (68.9) %
same,Proportion of subjects with HIV-1 RNA <400 copies/mL,HIV‐1 [2]; [7],119/164 (72.6) %
same,Proportion of subjects with HIV-1 RNA <50 copies/mL,HIV‐1 [2]; [8],200/290 (69.0) %
same,Proportion of subjects with HIV-1 RNA <400 copies/mL,HIV‐1 [2]; [8],210/290 (72.4) %
same,Proportion of subjects with HIV-1 RNA <50 copies/mL,HIV‐1 [2]; [9],17/30 (56.7) %
same,Proportion of subjects with HIV-1 RNA <400 copies/mL,HIV‐1 [2]; [9],17/30 (56.7) %
same,Proportion of subjects with HIV-1 RNA <50 copies/mL,HIV‐1 [2]; [10],62/96 (64.6) %
same,Proportion of subjects with HIV-1 RNA <400 copies/mL,HIV‐1 [2]; [10],63/96 (65.6) %
same,Proportion of subjects with HIV-1 RNA <50 copies/mL,HIV‐1 [2]; [11],104/164 (63.4) %
same,Proportion of subjects with HIV-1 RNA <400 copies/mL,HIV‐1 [2]; [11],107/164 (65.2) %
same,Proportion of subjects with HIV-1 RNA <50 copies/mL,HIV‐1 [2]; [12],183/290 (63.1) %
same,Proportion of subjects with HIV-1 RNA <400 copies/mL,HIV‐1 [2]; [12],187/290 (64.5) %
CC(C)c1nnc(CO)n1C1C[C@H]2CC[C@@H](C1)N2CC[C@H](NC(=O)C1CCC(F)(F)CC1)c1ccccc1 (some centres unmarked) [hydroxymethylmaraviroc],CYP3A5 contribution to the formation of this metabolite,CYP3A5,1%
"(1R,2R)‐2‐hydroxymaraviroc [(1R,2R)-2-hydroxymaraviroc]",CYP3A5 contribution to the formation of this metabolite,CYP3A5,minimal
same,mean MRAUC12 among black IMs and PMs and white PMs,[1],comparable
"(1S,3S)‐3‐hydroxymaraviroc [(1S,3S)-3-hydroxymaraviroc]",CYP3A5 contribution to the formation of this metabolite,CYP3A5,minimal
same,mean MRAUC12 across all cohorts,[1],comparable
Maraviroc,Cavg associated with near-maximal virologic efficacy,HIV‐1 [3],75 ng/mL
same,in vivo concentration for 50% inhibition,HIV,~8 ng/mL
same,blacks with viral load <50 copies/mL,HIV‐1 [4]; once-daily maraviroc group,28%
same,blacks with viral load <50 copies/mL,HIV‐1 [4]; twice-daily maraviroc group,26%
same,subjects who discontinued the study because of lack of efficacy,HIV‐1 [2]; EMs (4/43),9.3%
same,subjects who discontinued the study because of lack of efficacy,HIV‐1 [2]; IMs (8/85),9.4%
same,subjects who discontinued the study because of lack of efficacy,HIV‐1 [2]; PMs (25/175),14.3%
same,Proportion of subjects with HIV-1 RNA <50 copies/mL,HIV‐1 [2]; [13],30/43 (69.8) %
same,Proportion of subjects with HIV-1 RNA <400 copies/mL,HIV‐1 [2]; [13],32/43 (74.4) %
same,Proportion of subjects with HIV-1 RNA <50 copies/mL,HIV‐1 [2]; [14],53/85 (62.4) %
same,Proportion of subjects with HIV-1 RNA <400 copies/mL,HIV‐1 [2]; [14],61/85 (71.8) %
same,Proportion of subjects with HIV-1 RNA <50 copies/mL,HIV‐1 [2]; [15],126/175 (72.0) %
same,Proportion of subjects with HIV-1 RNA <400 copies/mL,HIV‐1 [2]; [15],132/175 (75.4) %
same,Proportion of subjects with HIV-1 RNA <50 copies/mL,HIV‐1 [2]; [16],209/303 (69.0) %
same,Proportion of subjects with HIV-1 RNA <400 copies/mL,HIV‐1 [2]; [16],225/303 (74.3) %
same,Proportion of subjects with HIV-1 RNA <50 copies/mL,HIV‐1 [2]; [17],23/43 (53.5) %
same,Proportion of subjects with HIV-1 RNA <400 copies/mL,HIV‐1 [2]; [17],26/43 (60.5) %
same,Proportion of subjects with HIV-1 RNA <50 copies/mL,HIV‐1 [2]; [18],47/85 (55.3) %
same,Proportion of subjects with HIV-1 RNA <400 copies/mL,HIV‐1 [2]; [18],52/85 (61.2) %
same,Proportion of subjects with HIV-1 RNA <50 copies/mL,HIV‐1 [2]; [19],109/175 (62.3) %
same,Proportion of subjects with HIV-1 RNA <400 copies/mL,HIV‐1 [2]; [19],117/175 (66.9) %
same,Proportion of subjects with HIV-1 RNA <50 copies/mL,HIV‐1 [2]; [20],179/303 (59.1) %
same,Proportion of subjects with HIV-1 RNA <400 copies/mL,HIV‐1 [2]; [20],195/303 (64.4) %
same,proportions of subjects with HIV-1 RNA <50 and <400 copies/mL among all 3 CYP3A5 genotypes,HIV‐1 [2]; weeks 48 and 96,comparable
